Source: patent publication US9702005B2, “Hepatitis B viral variants with reduced susceptibility to nucleoside analogs and uses thereof” (priority 2002, dated 2017)

What was measured:
[1] = system: HBV; experiment: Hepatitis B viral DNA levels in patients on treatment (capture hybridization assay); format: in vivo, human; details: for HBV DNA copies/ml: open label ADV
Protocol: (§1) Patient A, a person was initially referred for evaluation of thrombocytopenia and hepatosplenomegaly. At this time the patient had abnormal LFT's (ALT 67 U/L, normal <55) and the HBV DNA was 61 pg/ml (231 days prior to the start of treatment). The patient was HBsAg and HBeAg positive. The ALT's fluctuated between 50-70 IU/L from (−231 to −35 days pretreatment). ADV was commenced on Day 0 in a clinical trial on 30 mg/day. HBV DNA levels were reduced with ADV treatment. The ADV treatment was reduced to 10 mg/day (144 days post-treatment). There was a problem with the randomization treatment protocol. The patient was on antiviral treatment for 1 month only during the second year of the treatment period. The study was completed on Day 679 post ADV treatment. The patient was not on ADV treatment until the open label ADV was recommenced on Day 875 from the start of the initial ADV treatment. This second period of ADV treatment was given for 108 days (day 983 post initial ADV treatment). […] At Day 983, ADV treatment was stopped and the patient was treated with LMV.
(§2) Patient B is a liver transplant patient. The patient has been on both sequential and combination antiviral therapy including HBIG, FCV+HBIG, LMV+HBIG, LMV, LMV+GCV, LMV+FCV+GCV, LMV+GCV and finally LMV+ADV. The patient has been on long term ADV+LMV treatment for over 795 days. Patient C, is a person. Prior to ADV treatment the patient had abnormal LFT's (ALT 240 IU/L, normal <55) and the HBV DNA was 2×10^7 copies/ml. ADV was commenced on Day 0 in a clinical trial on 10 mg/day for two years. The average ALT during the two year clinical trial period ws 114 IU/L. However, the ALT was rising and at 630 days after the start of ADV treatment the ALT remained high 407 IU/L. Open label ADV was commenced on Day 668 from the start of the initial ADV treatment. This second period of ADV treatment was given for […]. […] The peak ALT during open label ADV treatment was 517 IU/L (Day 738). The next day (Day 739), ADV treatment was stopped and the patient was treated with LMV.
Hepatitis B surface antigen (HBsAg), hepatitis B e antigen (HBeAg), anti-HBe and hepatitis B core antigen (HBcAg) specific IgG and IgM were measured using commercially available immunoassays (Abbott Laboratories, North Chicago, Ill., USA). Hepatitis B viral DNA levels were measured using a capture hybridization assay according to the manufacturer's directions (Digene Hybrid Capture II, Digene Diagnostics Inc., Beltsville, Md.). The manufacturers stated cut-off for detecting HBV viremia in clinical specimens was 0.7×10^6 copies/ml or 2.5 pg/ml, [Hendricks et al., Am J Clin Pathol 104: 537-46, 1995]. HBV DNA levels can also be quantitated using other commercial kits such as Cobas amplification HBV monitor kit (Roche).

[2] = system: HBV; details: phase II studies, 30 mg daily dose, over 12 weeks; cited from earlier work
[3] = system: HBV rt A181T/N236T/N238D; experiment: In vitro drug susceptibility, recombinant HBV/baculovirus in HepG2 cells, rt A181T/N236T/N238D; format: cell-based, hepatitis B virus
Protocol: (§3) The sensitivity/resistance profile of HBV mutants to ADV was examined in vitro using recombinant HBV/baculovirus. The procedure for analyzing the resistance profile is outlined in the following Examples 12-20.
(§4) Sf21 insect cells were maintained in supplemented Grace's insect medium further supplemented with 10% v/v heat-inactivated fetal bovine serum (Gibco BRL, Gaithersburg, Md.) in humidified incubator at 28° C. with CO2. HepG2 cells were maintained in minimal essential medium supplemented with 10% v/v heat-inactivated fetal bovine serum (MEM-FBS). HepG2 cells were grown in humidified 37° C. incubators at 5% v/v CO2.
(§5) The recombinant HBV/baculovirus system used for antiviral testing has been previously described (Delaney et al., Antimicrob Agents Chemother 45(6): 17054013, 2001). In brief, the recombinant transfer vector was created by excising a fragment containing the 1.3X HBV genome construct and cloning it into the multiple cloning region of a baculovirus vector pBlueBac4.5 (Invitrogen, Carlsbad, Calif.). Point mutations were created by site directed mutagenesis using the commercial kits according to the manufacturer's specifications (QuikChange, Stratagene). HBV/baculovirus recombinant clones encoding the reverse transcriptase mutations rtA181T/N236T/N238D and […] in combination with the precore mutation at G1896A (pcW28 stop) or wild-type with respect to codon pcW28, were prepared by site-directed mutagenesis. The nucleotide sequence of the plasmid and the point mutations generated by site directed mutagenesis were confirmed by sequencing using the ABI Prism Big Dye Terminator Cycle Sequencing Ready Reaction Kit according to the manufacturer's specifications (Perkin Elmer, Cetus Norwalk, Conn.).
Purified recombinant transfer vector and linear AcMNPV baculovirus DNA were co-transfected into Sf21 cells using the BacNBlue transfection kit from Invitrogen (Carlsbad, Calif.); recombinant viruses were isolated by plaque assay according to the manufacturer's instructions. A series of recombinant viruses were amplified from isolated plaques by infecting 100-mm dishes of Sf21 cells. Viral DNA was extracted from amplified viruses using standard procedures. Purified viral DNA was digested with restriction enzymes and then fractionated by electrophoresis in a 1% […] agarose gel. Southern blotting was performed to determine which virus isolates contained the intact 1.3 HBV construct. A Boehringer Mannheim Random Prime DNA Labeling kit (Indianapolis, Ind.) was used to generate [P^32]-radiolabeled probes. A full-length double-stranded HBV genome was used as a template for all radiolabeled probes. […]

[4] = ALT in patients on treatment; format: in vivo, human
Protocol: as §1, §2

[5] = system: HBV rt N236T/N238D; experiment: In vitro drug susceptibility, recombinant HBV/baculovirus in HepG2 cells, rt N236T/N238D; format: cell-based, hepatitis B virus
Protocol: as §3, §4
(§6) The recombinant HBV/baculovirus system used for antiviral testing has been previously described (Delaney et al., Antimicrob Agents Chemother 45(6): 17054013, 2001). In brief, the recombinant transfer vector was created by excising a fragment containing the 1.3X HBV genome construct and cloning it into the multiple cloning region of a baculovirus vector pBlueBac4.5 (Invitrogen, Carlsbad, Calif.). […] The nucleotide sequence of the plasmid and the point mutations generated by site directed mutagenesis were confirmed by sequencing using the ABI Prism Big Dye Terminator Cycle Sequencing Ready Reaction Kit according to the manufacturer's specifications (Perkin Elmer, Cetus Norwalk, Conn.). […]

[6] = system: HBV rt L180M/M204V; experiment: In vitro drug susceptibility, recombinant HBV/baculovirus in HepG2 cells, rt L180M/M204V; format: cell-based, hepatitis B virus
Protocol: as §3, §4, §6

[7] = system: Wild-type (pPC) HBV reference laboratory strain (genotype D subtype ayw); experiment: In vitro drug susceptibility, recombinant HBV/baculovirus in HepG2 cells, wild-type; format: cell-based, hepatitis B virus
Protocol: as §3, §4, §5
Purified recombinant transfer vector and linear AcMNPV baculovirus DNA were co-transfected into Sf21 cells using the BacNBlue transfection kit from Invitrogen (Carlsbad, Calif.); recombinant viruses were isolated by plaque assay according to the manufacturer's instructions. […]

In the case of CC(C)(C)C(=O)OCOP(=O)(COCCn1cnc2c(N)ncnc21)OCOC(=O)C(C)(C)C [ADV, adefovir dipivoxil], the “HBV DNA levels” value ([1]; Patient A, ADV commenced Day 0, 30 mg/day) is reported as “reduced”, the “HBV DNA copies/ml” value ([1]; Patient A, day 904 post-ADV treatment) is reported as 1.55 × 10^6 copies/ml and the “HBV DNA copies/ml” value ([1]; Patient A, day 932) is reported as 2.97 × 10^6 copies/ml. The “HBV DNA copies/ml” value ([1]; Patient A, day 959) was 1.76 × 10^6 copies/ml, the “HBV DNA copies/ml” value ([1]; Patient A, day 983 (end ADV)) was 1.64 × 10^6 copies/ml and the “HBV DNA copies/ml” value ([1]; Patient C, day 701) was 1.5 × 10^7 copies/ml. The “HBV DNA copies/ml” value ([1]; Patient C, day 730) was 3.7 × 10^6 copies/ml, the “mean decrease in viremia” value [2] was 4 log10 and the “fold increase in IC50” value ([3]; rtA181T also present (triple mutant), readout not stated) was “five”. It also gave an ALT ([4]; Patient A, open label ADV, day 983 (end ADV)) of 65 IU/L, an ALT ([4]; Patient C, ADV 10 mg/day clinical trial, day 29) of 160 IU/L and an ALT ([4]; Patient C, ADV 10 mg/day clinical trial, day 630) of 407 IU/L. The ALT ([4]; Patient C, open label ADV, day 701) was 226 IU/L, the ALT ([4]; Patient C, open label ADV, day 730) was 361 IU/L and the “ALT (peak during open label ADV)” value ([4]; Patient C, open label ADV, day 738) was 517 IU/L. For the same compound, the “average ALT” value ([4]; Patient C, two year clinical trial period, ADV 10 mg/day) was 114 IU/L and the “fold increase in IC50” value ([5]; rt N236T/N238D mutation, readout not stated) was “twenty-three”.

With Nc1ncnc2c1ncn2CCOCP(=O)(O)O [Adefovir, 9-[phosphonyl-methoxyethyl]-adenine] the “In vitro Susceptibility IC50 (fold change from wild-type), Real-time PCR” value ([3]; Real-time PCR, rt A181T/N236T/N238D) was 5.1 fold, the “In vitro Susceptibility IC50 (fold change from wild-type), Southern Blot” value ([3]; rt A181T/N236T/N238D) was 7.3 fold and the “In vitro Susceptibility IC50 (fold change from wild-type), Southern Blot” value [6] was 0.9 fold. The “In vitro Susceptibility IC50 (fold change from wild-type), Real-time PCR” value ([5]; Real-time PCR, rt N236T/N238D) was 23 fold, the “In vitro Susceptibility IC50 (fold change from wild-type), Real-time PCR” value ([7]; Real-time PCR) was 1 fold and the “In vitro Susceptibility IC50 (fold change from wild-type), Southern Blot” value [7] was 1 fold.

For Nc1ccn([C@@H]2CS[C@H](CO)O2)c(=O)n1 [Lamivudine, (-)-β-2'-deoxy-3'-thiacytidine], the “In vitro Susceptibility IC50 (fold change from wild-type), Southern Blot” value ([3]; rt A181T/N236T/N238D) was >100 fold, the ALT ([4]; Patient B, day -8 (S6), pre-ADV on LMV) was 427 IU/L and the “In vitro Susceptibility IC50 (fold change from wild-type), Southern Blot” value [6] was >2500 fold. The “In vitro Susceptibility IC50 (fold change from wild-type), Southern Blot” value [7] was 1 fold.
